Test results published in patent US9951055B2, “Thiazole-based inhibitors of scavenger receptor BI” (THE BROAD INSTITUTE, INC., priority 2012, dated 2018).
Entries after “also recorded” stand apart in the source; their conditions may differ. Counter-ions that a name gives are not always drawn. Like-named read-outs stand apart in the source and are kept apart here. Values belong to the compound of their own block, whether it stands above or below them.

Columns and labels:
murine SR-BI = target: T1, murine SR-BI (Mus musculus, UniProt Q61009); assay: DiI-HDL uptake assay (primary assay); type: cell-based
T1 construct: expressed in transfected cells; host or cells: ldlA[mSR-BI]; (CHO ldlA7 derivative lacking the LDL receptor)
T1 sequence (Q61009 1-509): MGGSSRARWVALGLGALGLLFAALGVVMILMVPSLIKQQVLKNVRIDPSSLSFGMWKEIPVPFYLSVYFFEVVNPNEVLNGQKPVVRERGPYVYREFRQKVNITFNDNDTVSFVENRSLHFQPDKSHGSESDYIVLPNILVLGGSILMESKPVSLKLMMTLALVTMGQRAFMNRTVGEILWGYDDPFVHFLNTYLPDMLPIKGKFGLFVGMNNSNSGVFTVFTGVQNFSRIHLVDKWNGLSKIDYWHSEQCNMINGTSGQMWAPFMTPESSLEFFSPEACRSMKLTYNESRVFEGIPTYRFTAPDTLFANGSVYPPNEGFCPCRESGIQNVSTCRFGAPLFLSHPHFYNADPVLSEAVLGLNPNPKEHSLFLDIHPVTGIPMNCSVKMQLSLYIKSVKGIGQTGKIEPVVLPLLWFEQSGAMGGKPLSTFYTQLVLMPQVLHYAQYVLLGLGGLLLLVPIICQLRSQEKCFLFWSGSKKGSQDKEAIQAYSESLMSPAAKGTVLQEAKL
Description: The following cell lines were used in this study: • ldlA[mSR-BI] is a Chinese hamster ovary (CHO) cell line that overexpresses murine SR-BI, isoform 1 (NP_058021) and was obtained from the Assay Provider (Krieger Laboratory). This cell line was used for the primary assay and several secondary assays. […] This cell line was obtained from the Assay Provider. Assays DiI-HDL Uptake Assay (Primary Assay AID Nos. 488896, 493194, 540354 588392, 588553, 588548, 588754, 588828, 588833)
ldlA[mSR-BI]cells were plated into 384-well plates at 30 μl per well and incubated overnight. As a measurable surrogate for cholesterol uptake, human HDL particles were treated with the lipophilic fluorescent dye DiI and exposed to ldlA[mSR-BI]cells in lipoprotein-free media (Ham's F12/0.5% fatty acid-free Bovine Serum Albumin (BSA)/25 mM HEPES pH 7.4 plus 10 μg protein/ml DiI-HDL). Cells took up the DiI via SR-BI over 3 hours in the presence of compound. After significant uptake of the DiI, the cells became fluorescent. The level of fluorescence correlates with the amount of DiI uptake and can be measured with a standard plate reader (here a PerkinElmer EnVision plate reader was used). The uptake of lipid (represented by DiI) was inhibited by the positive control compound BLT-1 or with an excess of HDL untreated with DiI. Primary HTS data were analyzed in Genedata Screener Assay Analyzer, and were normalized against DMSO and the positive control (1 μM BLT-1). For the HTS, the average of two replicates was used to rank order activity and to choose compounds for retests. For dose studies, percent (%) activity was determined for each concentration and the concentration response curves (CRCs) were generated with Genedata Condeseo.
To identify novel inhibitors, SR-BI-mediated lipid uptake was measured in an engineered cell line that minimized potential uptake by other mechanisms, including via the LDL receptor (1). ldlA[mSR-BI]cells overexpress murine isoform 1 and selectively take up HDL lipid at similar levels as “has been reported for cultured mouse adrenal cells, perfused organs, and liver, adrenal gland and ovary in vivo” (1). This primary cell-based assay was used in a pilot screen that identified BLTs 1 through 5 (12). The assay was slightly modified from the original protocol of Nieland et al. to increase throughput and to ease automation procedures.

[1] = test system: Jc1 378-1 TagRFP reporter HCV virus; assay: In vitro inhibition of HCV in Huh-7.5 cells; type: cell-based, hepatitis C virus; conditions: for inhibition of HCV replication: Huh-7.5 cells, MOI=0.1, 3 dpi; for mean fluorescence intensity (MFI) of HCV positive cells: normalized to DMSO control
Procedure: The compound of formula (II) was also tested for the in vitro inhibition of HCV. Huh-7.5 cells were seeded in a 24-well plates (50,000 cells/well) and incubate over night. The medium was changed to compound/solvent containing medium 2 hours prior to infection (200 μL/well) with a reporter HCV virus called Jc1 378-1 TagRFP. A dilute virus stock was used to infect at a MOI of 0.1 (7,500 IU/well) in 10 μL medium. 10 μL of virus dilution was added to the wells containing compound/solvent (thereby dilution the compounds by only ˜5%). Infections were incubated for 4 hours before washing off the inoculum 1× with 500 μL medium. Fresh compound/solvent containing medium was added to the cells (500 μL/well), and further incubated for 48-72 hours. Cells were harvested at 48-72 hpi and viral replication was determined by fixing the cells and measuring replication by FACS (fluorescence activated cell sorting). Controls having antibodies that neutralize HCV by blocking E2 (2 μg/mL) and controls having antibodies that block a HCV receptor CD81 (2 μg/mL) were used.
A series of tests were conducted using the compound of Formula II ML278), other known inhibitors of SRB1 and controls with cells infected with hepatitis C virus (HCV). The cells (Huh-7.5 cells infected with Jc1 378-1 TagRFP (MOI=0.1) 3 dpi) were treated with the following SR-BI compounds and controls:
Three different infection protocols were followed: (1) no wash—virus inoculum was removed 4 hpi and fresh medium containing compounds added without washing cells; (2) 5× wash—virus inoculum was removed 4 hpi, cells were washed 5× with PBS and fresh medium containing compounds added; and (3) no wash Opt—infection were performed in serum-free OptiMem; virus inoculum was removed 4 hpi and fresh medium containing compounds added without washing cells. FIG. 107 provides a comparison of the three different infection set-ups. FIG. 108 provides a comparison of two independent experiments.

[2] = test system: endocytosis of transferrin; assay: Transferrin endocytosis assay; type: cell-based
Description: Transferrin Endocytosis Assay (SA 3: AID No. 602134) This assay measures the endocytosis of an independent ligand, transferrin, which is not taken up via SR-BI but by clathrin-mediated endocytosis. This assay provides a measure of the selectivity of the inhibitors. Alexa-594-labeled transferrin is taken into the cell via endocytosis and localization of labeled transferrin was quantitated in the various intracellular compartments. […] Inhibitors of interest should act selectively at SR-BI and should have no activity in this assay. Cells were pre-treated with compound for 3 hours and then treated with the Alexa-594 transferrin reagent for 30 minutes (Catalog No. T-13343; Invitrogen) in serum-free media. Plates of cells were then placed onto ice, washed with ice cold PBS, and then fixed with 4% paraformaldehyde. In addition, the nuclei were stained with 300 nM 4′,6-diamidino-2-phenylindole (DAPI) (Catalog No. 21490; Invitrogen). The cells were imaged with the Molecular Devices IXM microscope (FIG. 22). Translocation measurements were performed using MetaExpress software and normalized for cell number.

IC50 (murine SR-BI; read-out: IC50, DiI-HDL uptake): 0.9 nM
Compound: COc1cc(OC)cc(C(=O)Nc2nc(-c3ccc4c(c3)CCN4C(=O)OC(C)(C)C)cs2)c1 [Boc carbamate, tert-Butyl 5-(2-(3,5-dimethoxybenzamido)thiazol-4-yl)indoline-1-carboxylate]

Compound: CC(=O)Nc1ccc(Cl)c(C(=O)Nc2ccc(N3CCN(C(=O)OC(C)(C)C)CC3)cc2)c1 [Compound R-154716]
inhibition of HCV replication ([1]; listed as SRB1-2): inhibited viral replication; also recorded: able to inhibit HCV replication | mean fluorescence intensity (MFI) of HCV positive cells [1]: increased mean fluorescence intensity (MFI) of HCV positive cells in a dose dependent manner

Compound: COc1c(NC(=O)C(=O)c2ccc(OCCN3CCOCC3)c3ccccc23)cc(C(C)(C)C)cc1NS(C)(=O)=O [ITX-5061]
inhibition of HCV replication ([1]; listed as SRB1-9): inhibited viral replication; also recorded: able to inhibit HCV replication | mean fluorescence intensity (MFI) of HCV positive cells [1]: this increase was not seen

IC50 (murine SR-BI; range, read-out: range of IC50 for HDL-mediated lipid uptake): 0.93 to 6 nM
Compound: CCC(=O)N1CCc2cc(-c3csc(NC(=O)c4ccco4)n3)ccc21 [MLS001217863]
endocytosis of transferrin [2]: not grossly perturbing cellular membrane trafficking pathways

Compound: COc1cc(OC)cc(C(=O)Nc2nc(-c3ccc4c(c3)CCN4)cs2)c1 [N-(4-(Indolin-5-yl)thiazol-2-yl)-3,5-dimethoxybenzamide, trifluoroacetic acid salt]
loss of activity/potency relative to parent analog (murine SR-BI): approximately 3 fold
